The results in this text go back to ChEMBL document CHEMBL3797134, “Selectivity of 3-bromo-isoxazoline inhibitors between human and Plasmodium falciparum glyceraldehyde-3-phosphate dehydrogenases” (Bioorg Med Chem, 2016).

In series [1] the test system is COc1ccc(C2CC(Br)=NO2)cc1. The series can be described thus: Binding affinity to recombinant N-terminal His-tagged human GAPDH expressed in Escherichia coli BL21 codonPlus (DE3)-RIL cells assessed as enzyme Km at 50 uM after 4 hrs by Michaelis-Menten plot analysis (reference value: 340+/- 5 uM).
For series [2], the system named is COc1ccc(C2CC(Br)=NO2)cc1. The series can be described thus: Binding affinity to recombinant N-terminal His-tagged human GAPDH expressed in Escherichia coli BL21 codonPlus (DE3)-RIL cells assessed as enzyme Vmax at 50 uM after 4 hrs by Michaelis-Menten plot analysis (reference value: 0.069 +/- 0.003 mM/min).
The target of series [3] is Glyceraldehyde-3-phosphate dehydrogenase (Plasmodium falciparum) (UniProt Q8T6B1). The series can be described thus: Inhibition of recombinant His-tagged Plasmodium falciparum GAPDH expressed in Escherichia coli using sodium arseniate as substrate at 50 to 300 uM.
Glyceraldehyde-3-phosphate dehydrogenase (Plasmodium falciparum), sequence (Q8T6B1 as listed by the source): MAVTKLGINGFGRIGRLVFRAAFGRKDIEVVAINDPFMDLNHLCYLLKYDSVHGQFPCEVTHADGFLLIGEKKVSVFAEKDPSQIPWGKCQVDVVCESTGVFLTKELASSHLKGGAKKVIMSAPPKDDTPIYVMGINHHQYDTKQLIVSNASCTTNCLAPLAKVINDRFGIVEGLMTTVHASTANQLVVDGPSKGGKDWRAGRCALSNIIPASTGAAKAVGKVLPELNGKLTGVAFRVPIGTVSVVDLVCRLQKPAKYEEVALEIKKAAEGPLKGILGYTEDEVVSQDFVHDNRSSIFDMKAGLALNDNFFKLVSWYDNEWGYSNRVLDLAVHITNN
The target of series [4] is Glyceraldehyde-3-phosphate dehydrogenase (Homo sapiens) (UniProt P04406). The experiment in a line: Inhibition of recombinant N-terminal His-tagged human GAPDH expressed in Escherichia coli BL21 codonPlus (DE3)-RIL cells using sodium arseniate as substrate at 10 to 300 uM.
Glyceraldehyde-3-phosphate dehydrogenase (Homo sapiens), sequence (P04406 2-335 limits assumed): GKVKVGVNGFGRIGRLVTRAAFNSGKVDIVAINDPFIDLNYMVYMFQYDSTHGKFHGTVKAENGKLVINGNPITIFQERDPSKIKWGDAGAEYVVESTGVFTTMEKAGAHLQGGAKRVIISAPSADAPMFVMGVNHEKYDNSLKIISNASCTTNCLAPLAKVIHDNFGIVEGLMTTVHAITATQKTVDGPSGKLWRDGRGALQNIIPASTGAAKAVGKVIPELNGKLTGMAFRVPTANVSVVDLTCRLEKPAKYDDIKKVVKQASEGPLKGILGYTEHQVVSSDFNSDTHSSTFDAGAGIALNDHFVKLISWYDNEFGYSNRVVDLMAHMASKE
Series [5] concerns the target Glyceraldehyde-3-phosphate dehydrogenase (Plasmodium falciparum) (UniProt Q8T6B1). The series can be described thus: Slow phase inhibition of recombinant His-tagged Plasmodium falciparum GAPDH expressed in Escherichia coli using sodium arseniate as substrate assessed as ratio of Kinact to Ki by Kitz-Wilson double reciprocal plot analysis.
The target is the same in series [6]. The series can be described thus: Fast phase inhibition of recombinant His-tagged Plasmodium falciparum GAPDH expressed in Escherichia coli using sodium arseniate as substrate assessed as ratio of Kinact to Ki by Kitz-Wilson double reciprocal plot analysis.
The target in series [7] is Glyceraldehyde-3-phosphate dehydrogenase (Homo sapiens) (UniProt P04406). The experiment in a line: Fast phase inhibition of recombinant N-terminal His-tagged human GAPDH expressed in Escherichia coli BL21 codonPlus (DE3)-RIL cells using sodium arseniate as substrate assessed as ratio of Kinact to Ki by Kitz-Wilson double reciprocal plot analysis.
Series [8] has the same target. The series can be described thus: Binding affinity to recombinant N-terminal His-tagged human GAPDH expressed in Escherichia coli BL21 codonPlus (DE3)-RIL cells assessed as decrease in reactive cysteine content at 50 uM after 4 hrs relative to control. Details: scale not given: the % may be the effect or the level left.
Series [9] has the same target. The series can be described thus: Binding affinity to recombinant N-terminal His-tagged human GAPDH expressed in Escherichia coli BL21 codonPlus (DE3)-RIL cells assessed as remaining cysteine pKa at 300 uM after 4 hrs (reference value: 6).
Series [10] shares this target. The experiment in a line: Effect on dimer to tetramer equilibrium of recombinant N-terminal His-tagged human GAPDH expressed in Escherichia coli BL21 codonPlus (DE3)-RIL cells at 50 uM after 4 hrs by gel filtration method. On the technique in general: Size exclusion chromatography separates by hydrodynamic size, large species first.

Calls of active or inactive are those of the source. No cut-off for these calls is given here.

Glyceraldehyde-3-phosphate dehydrogenase (Homo sapiens), P04406, sequence (P04406 whole entry): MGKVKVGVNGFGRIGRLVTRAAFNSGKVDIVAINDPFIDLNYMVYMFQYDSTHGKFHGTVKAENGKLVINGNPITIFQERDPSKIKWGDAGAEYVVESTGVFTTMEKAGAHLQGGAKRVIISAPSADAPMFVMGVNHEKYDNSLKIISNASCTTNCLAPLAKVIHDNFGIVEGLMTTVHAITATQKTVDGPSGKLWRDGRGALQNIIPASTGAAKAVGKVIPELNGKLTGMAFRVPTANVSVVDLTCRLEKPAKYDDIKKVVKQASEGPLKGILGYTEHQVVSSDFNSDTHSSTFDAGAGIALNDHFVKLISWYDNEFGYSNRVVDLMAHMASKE

For the compound “Glyceraldehyde-3-phosphate dehydrogenase (Homo sapiens), P04406”, the Km (usually the concentration of substrate that gives half-maximal velocity) in the series with COc1ccc(C2CC(Br)=NO2)cc1 [1] amounted to 299 µM. For the same compound, the Vmax (in general, the rate approached at saturating substrate) in the series with COc1ccc(C2CC(Br)=NO2)cc1 [2] came out at 0.051 mM/min.

With `COc1ccc(C2CC(Br)=NO2)cc1` (stereo unspecified), in series [3], the inhibition (as a rule, the change of the read-out against control, counted positive when it falls) amounted to 25%. In addition, the inhibition entry in [4] is “Active”. The values for the Ratio in series [5], in series [6] and in series [7] were 0.34 s⁻¹ M⁻¹, 59.9 s⁻¹ M⁻¹ and 142 s⁻¹ M⁻¹, respectively. Further, the Activity in series [8] worked out at 7.8%. Also, the pKa in series [9] is 6.3. Moreover, the result in series [10] was inactive.

With `COC(=O)[C@@H](N)[C@@H]1CC(Br)=NO1`, the Ratio in [5] worked out at 10.7 s⁻¹ M⁻¹.
